Experimental findings from PubChem BioAssay AID1949 (Southern Research Institute, 2009) are described below.

The subject of this assay is M. tuberculosis H37Rv growth inhibition. The assay can be described thus: Confirmatory growth inhibition assay against Mycobacterium tuberculosis H37Rv, potency (AID 1949).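 Further: bacteria grown 7 days with compound before Alamar blue readout.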

In brackets after ≈: the same amount, converted by molar mass. Results filed as inconclusive are left out. Activity calls are given as the source filed them. How the calls were made is not given here.

Regarding `COC(=O)C(Oc1ccc2c(c1)oc(=O)c1cc(OC)ccc12)c1ccccc1` (stereo unspecified), the IC50 is 1.32 µg/mL (≈ 3.38 µM).
For the compound `O=c1c2cccc3c2c(nn1CCN1CCCCC1)-c1ccccc1-3`, the IC50 is 2.84 µg/mL (≈ 8.57 µM).
As for `COC(=O)C1=C(C)NC2=C(C(=O)CC(c3ccccc3)C2)C1c1ccccc1Br` (stereo unspecified), the figure is 7.5 µg/mL (≈ 16.6 µM).
With `N#Cc1ccc(NC(=O)Nc2ccc(Cl)cc2)cc1` the figure was 0.51 µg/mL (≈ 1.88 µM); with `Cc1ccc(-n2sc3ccccc3c2=O)cc1`, under 0.1 µg/mL; with `Cc1c(Cl)ccc(OCCCN2CCCC(C)C2)c1C` (stereo unspecified), 3.16 µg/mL (≈ 10.7 µM).
As for `Cc1cc(Cl)ccc1OCC(=O)Nc1ccc(N2CCN(C)CC2)c(Cl)c1`, the figure is 5.62 µg/mL (≈ 13.8 µM); as for `CCN(CC)c1ccc(NC(=O)c2ccc([N+](=O)[O-])o2)c(C)c1`, 0.52 µg/mL (≈ 1.64 µM).
`Cc1ccnc(NC(=O)COc2ccc(C(C)(C)C)cc2Br)c1`: the half-inhibitory concentration (IC50) was 5.61 µg/mL (≈ 14.9 µM).
As for `CCOC(=O)COc1ccc2c3c(c(=O)oc2c1)CCCCC3`, the figure is 2.73 µg/mL (≈ 8.63 µM); as for `O=C(CC12CC3CC(CC(C3)C1)C2)Nc1ccc2ccccc2c1`, under 0.1 µg/mL; as for `O=C1OCCC1Sc1cccc2cccnc12` (stereo unspecified), 7.31 µg/mL (≈ 29.8 µM).
With `Clc1ccc(C2=CC(c3ccc(Cl)cc3)n3nnnc3N2)cc1` (stereo unspecified), the IC50 was 2.07 µg/mL (≈ 6.01 µM).
As for `Cc1ccccc1C(=O)N1CCN(c2ccc(NC(=S)NC(=O)c3cccc(Cl)c3)cc2)CC1`, the figure is > 50 µg/mL (inactive); as for `N#Cc1cc(-c2nc3ccccc3[nH]2)c(N)n2c1nc1ccccc12`, 11.5 µg/mL (≈ 35.5 µM); as for `O=C(CSc1nnc(-c2ccccc2)o1)N1CCc2ccccc2C1`, 9.27 µg/mL (≈ 26.4 µM).
With `CCc1ccc(OCC(=O)Nc2cccc(F)c2)cc1`, the IC50 was 1.74 µg/mL (≈ 6.37 µM).
With `CC1(C)C=Cc2c(nc3ccccc3c2NCc2ccccc2)C1` the figure was 1.47 µg/mL (≈ 4.68 µM); with `CCC(C)c1ccc(OCCCCn2ccnc2)cc1` (stereo unspecified), 1.12 µg/mL (≈ 4.11 µM); with `Cc1cc(C)cc(NC(=S)NC2CCCC2)c1`, 8.73 µg/mL (≈ 35.1 µM).
As for `CC(C)c1ccc(NCCC(=O)c2cccs2)cc1`, the figure is 6.34 µg/mL (≈ 23.2 µM); as for `CCOC(=O)COc1ccc2ccccc2c1/C=C(\C)[N+](=O)[O-]`, 0.5 µg/mL (≈ 1.59 µM).
`O=C(Nc1ccc(OCC(F)(F)C(F)F)c(C(F)(F)F)c1)c1ccccc1O`: the IC50 was 5.26 µg/mL (≈ 12.8 µM).
As for `Cn1c(=O)c([N+](=O)[O-])c(Nc2cccc(C(F)(F)F)c2)c2ccccc21`, the figure is 15.4 µg/mL (≈ 42.3 µM); as for `O=c1c2ccccc2[nH]c(=S)n1CCCN1CCN(c2cccc(Cl)c2)CC1`, 2.46 µg/mL (≈ 5.93 µM); as for `CCOC(=O)CCc1c(C)c(C#N)c2[nH]c3ccccc3n2c1=O`, under 0.1 µg/mL.
In the case of `Cc1ccc(C(=O)N2CCN(c3ccc(NC(=O)COc4c(C)cc(C)cc4Cl)cc3)CC2)cc1`, the IC50 was 8.74 µg/mL (≈ 17.8 µM).
As for `COc1ccc(NC(=O)c2ccc(C#CC(C)(C)O)s2)cc1`, the figure is 0.31 µg/mL (≈ 0.983 µM).
With `Cc1ccc(C(=O)NCCC2=CCCCC2)cc1Br` the figure was 3.14 µg/mL (≈ 9.74 µM); with `O=C1N(Cc2ccccc2Cl)c2ccc(Br)cc2C1(O)c1c[nH]c2ccccc12` (stereo unspecified), 1.68 µg/mL (≈ 3.59 µM).
Take `Cc1ccc(NC(=O)c2cc3cc(Cl)cc(Cl)c3oc2=O)c(C)c1`: the IC50 is 1.1 µg/mL (≈ 3.04 µM).
Take `COc1ccc(CN2CCC(N(CCc3ccccc3)Cc3ccccc3)CC2)c(OC)c1`: the IC50 was 2.61 µg/mL (≈ 5.87 µM).
As for `O=[N+]([O-])c1ccc(O)c(-c2nc(-c3cccs3)c(-c3cccs3)[nH]2)c1`, the figure is 97 µg/mL (≈ 263 µM); as for `CCC(=O)Nc1ccc2oc(-c3c(F)c(F)c(F)c(F)c3F)nc2c1`, 10.5 µg/mL (≈ 29.4 µM).
On to `O=C(Nc1ccc(F)c(Cl)c1)c1ccc([N+](=O)[O-])o1`, for which the IC50 is under 0.1 µg/mL.
As for `Cc1ccc(-c2nnc(N3CCN(C(=O)c4ccc(Cl)cc4)CC3)c3ccccc23)cc1`, the figure is 3.65 µg/mL (≈ 8.24 µM); as for `C1=CC2CC1CC2CN1CCC(N(CCc2ccccc2)Cc2ccccc2)CC1` (stereo unspecified), 1.4 µg/mL (≈ 3.49 µM).
With `CCOC(=O)COc1ccc(Br)c(C=O)c1`, the IC50 was 5.47 µg/mL (≈ 19.1 µM).
As for `CCn1nnc(NC(=O)COc2ccc(C3CCCCC3)cc2)n1`, the figure is 2.04 µg/mL (≈ 6.19 µM); as for `c1ccc(-c2nnc3sc(-c4cc5ccccc5o4)nn23)cc1`, 4.89 µg/mL (≈ 15.4 µM).
As for `CCOC(=O)c1c(NC(=O)COc2ccc(C(C)C)cc2)sc2c1CCC2`, the figure is 2.77 µg/mL (≈ 7.15 µM); as for `N=c1c2c(-c3ccccc3)c(-c3ccccc3)n(Cc3ccco3)c2ncn1Cc1ccco1`, 3.09 µg/mL (≈ 6.92 µM).
As for `O=c1cc(Cc2ccccc2)nc2c(-c3ccccc3)c[nH]n12`, the figure is 0.36 µg/mL (≈ 1.19 µM).
For `O=C(CC(Nc1ccc(F)cc1)c1ccccc1)c1ccccc1` (stereo unspecified), the IC50 is 9.26 µg/mL (≈ 29 µM).
As for `CCC(C)(C)C1CCc2sc3ncnc(N4CCN(C)CC4)c3c2C1` (stereo unspecified), the figure is 6.39 µg/mL (≈ 17.8 µM); as for `CC12CC3CC(C)(C1)CC(C(=O)Nc1nc4ccccc4s1)(C3)C2`, 0.24 µg/mL (≈ 0.705 µM); as for `O=C(COc1ccc([N+](=O)[O-])cc1)Nc1ccccc1F`, 18.7 µg/mL (≈ 64.6 µM).
With `C=CCc1cc(/C=C/[N+](=O)[O-])cc(OCC)c1O` the figure was 5.69 µg/mL (≈ 22.8 µM); with `CCCc1ccc(OCC(=O)Nc2ccc(Cl)cc2Cl)cc1`, 2.86 µg/mL (≈ 8.46 µM); with `Fc1ccc(C2=NN(c3ccc(Cl)cc3)C(c3cccs3)C2)cc1` (stereo unspecified), 5.63 µg/mL (≈ 15.8 µM).
With `CCCc1ccc(OC(=O)c2cc3ccccc3oc2=O)cc1` the figure was 22.4 µg/mL (≈ 72.5 µM).

The IC50 is the concentration that inhibits the measured activity by half.
